# In patent publication US8853490B2 (priority 2010, dated 2014):
# Where two headings read alike, the source gives them in different places.
# What was measured:
# [1] = system: Diplodia maydis (DMA; isolate Warren-IN-96); type: cell-based
# [2] = system: Colletotrichum graminicola (CGR; isolate Carroll-IA-99); type: cell-based
Substance,In vitro antifungal activity (IC50) against D. maydis (DMA) ([1]; high salt conditions) [ppm],In vitro antifungal activity (IC50) against D. maydis (DMA) ([1]; low salt conditions) [ppm],In vitro antifungal activity (IC50) against C. graminicola (CGR) ([2]; high salt conditions) [ppm],In vitro antifungal activity (IC50) against C. graminicola (CGR) ([2]; low salt conditions) [ppm]
LB-5220 (r2 5G7): LBNL variant generated through gene shuffling of the LB-5220 mature peptide coding sequence (LKYTGTCRRANNQCKYKGQNNRDTFVKCPTFANKKCTRDGAKCSFDSYSRAVTCD; Synthetic peptide LB-5220 (r2-5G7)),12,0.1,6,
LB-5220 (ps 1B4): LBNL variant generated through gene shuffling of the LB-5220 mature peptide coding sequence (LKYTGTCTRKNNQCKYRGQNNRDTFVKCPTFANKRCTRDGAPCSFDSYSRAVTCD; Synthetic peptide LB-5220 (ps-1B4)),12,0.1,,
LB-9827-3B-26G11: LBNL variant generated through gene shuffling of the LB-9827-1 mature peptide coding sequence (LSKYGGECSKEHNTCKYLKGGKNQVVACPKAANKKCKTDRHHCEYDEYHKTVDCQTPV; Synthetic peptide LB-9827-3B-26G11),,,0.63,
LB-5220 (r2 6F2): LBNL variant generated through gene shuffling of the LB-5220 mature peptide coding sequence (LKYTGTCRRANNQCKYKGQNNRDTFVKCPTFANKKCTRDGEKCSFDSYSRAVTCD; LB-5220 (r2-6F2)),6,0.1,12,0.4
LB-9827-3B-21E10: LBNL variant generated through gene shuffling of the LB-9827-1 mature peptide coding sequence (LSKYGGECSRAHNTCTYRKGGKNQVVNCPSAANKKCKSDRHHCEYDEYHKRVDCQTPV; Synthetic peptide LB-9827-3B-21E10),30,,1.25,
LB-9827-3B-25F2: LBNL variant generated through gene shuffling of the LB-9827-1 mature peptide coding sequence (LSKYGGECSREHNTCTYLKGGKNQVVACGSAANKKCKRDRHHCEYDDYHKTVDCQTPV; Synthetic peptide LB-9827-3B-25F2),7.5,,1.25,
LB-9827-3B-25G5: LBNL variant generated through gene shuffling of the LB-9827-1 mature peptide coding sequence (LSKYGGECSRAHNTCTYRKGGKNQVVKCGTAANKKCKSDRHHCEYDDYHKRVDCQTPV; Synthetic peptide LB-9827-3B-25G5),0.47,,1.25,
LB-9827-3A-11E4: LBNL variant generated through gene shuffling of the LB-9827-1 mature peptide coding sequence (LSKYGGECSRKHNTCTYKKGGKNQIVNCPTAANKRCKTDRHHCEYDEYHRRVDCQTPV; LB-9827-3A-11E4),0.94,,1.25,
